Experimental data from ChEMBL document CHEMBL1131733, “Dual-acting agents with alpha1-adrenoceptor antagonistic and steroid 5alpha-reductase inhibitory activities. Synthesis and evaluation of arylpiperazine derivatives” (Bioorg Med Chem Lett, 1999).

Legend:
[1] = target: T1, Steroid 5-alpha-reductase (Rattus norvegicus, UniProt P24008+P31214); experiment: Inhibition of Steroid 5-alpha-reductase from Dawley rat prostate; format: tissue-based, Prostate gland
T1 sequence (P24008 whole entry): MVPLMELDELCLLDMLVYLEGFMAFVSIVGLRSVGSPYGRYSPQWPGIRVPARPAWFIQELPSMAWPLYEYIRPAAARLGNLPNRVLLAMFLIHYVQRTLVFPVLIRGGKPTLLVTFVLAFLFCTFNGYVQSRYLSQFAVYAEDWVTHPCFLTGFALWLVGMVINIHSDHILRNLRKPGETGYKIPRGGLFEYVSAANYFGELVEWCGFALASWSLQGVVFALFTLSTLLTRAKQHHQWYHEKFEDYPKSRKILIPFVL
T1 sequence (P31214 whole entry): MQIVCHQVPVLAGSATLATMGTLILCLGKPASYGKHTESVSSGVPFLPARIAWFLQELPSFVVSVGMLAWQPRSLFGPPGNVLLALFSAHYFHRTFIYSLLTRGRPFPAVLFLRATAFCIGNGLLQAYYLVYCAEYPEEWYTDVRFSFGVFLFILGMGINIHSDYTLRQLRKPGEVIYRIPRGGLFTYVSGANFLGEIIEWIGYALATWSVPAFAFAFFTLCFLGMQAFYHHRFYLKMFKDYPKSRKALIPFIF

[2] = Antagonistic Alpha-1 adrenergic receptor activity against phenylephrine-induced contraction of rabbit prostate; format: functional, Oryctolagus cuniculus
Oryctolagus cuniculus = experiment: Dose required to inhibit increase in urethral pressure induced by phenylephrine in anesthetized rabbits by iv administration; format: functional
[3] = target: Steroid 5-alpha-reductase (Rattus norvegicus) (UniProt P24008+P31214); experiment: Inhibitory effect on prostatic Steroid 5-alpha-reductase, 2 hours after oral administration

SMILES | IC50 [1] [nM] | pA2 [2] | Dose (Oryctolagus cuniculus) [mg/kg] | ED50 [3] [mg/kg]
CCOc1ccccc1N1CCN(CCCOc2cc(C(=O)c3cn(CCCC(=O)O)c4ccccc34)ccc2OCc2ccc(C)cc2)CC1 | 1.5 | 7.5 | 0.3 | 7.9
COc1ccccc1N1CCN(CCCOc2cc(C(=O)Nc3ccccc3OCCCC(=O)O)ccc2OCc2ccccc2)CC1 | 490 | 8 |  | 
COc1ccccc1N1CCN(CCCOc2ccc(C(=O)Nc3ccccc3OCCCC(=O)O)cc2OCc2ccccc2)CC1 | 3500 | 7.2 |  | 
CCCOc1ccccc1N1CCN(CCCOc2cc(C(=O)c3cn(CCCC(=O)O)c4ccccc34)ccc2OCc2ccc(C)cc2)CC1 | 3 | 6.8 |  | 
CC(C)Cc1ccc(C(Nc2cccc(C(=O)c3cn(CCCC(=O)O)c4ccccc34)c2)c2ccc(CC(C)C)cc2)cc1 | 4.2 |  |  | 
COc1ccccc1N1CCN(CCCCOc2cc(C(=O)c3cn(CCCC(=O)O)c4ccccc34)ccc2OCc2ccc(C)cc2)CC1 | 1.5 | 6.7 |  | 
COc1ccccc1N1CCN(CCCOc2cc(C(=O)c3cn(CCCC(=O)O)c4ccccc34)ccc2OCc2ccccc2)CC1 | 11 | 7.8 |  | 
COc1ccccc1N1CCN(CCCOc2cc(C(=O)c3cn(CCCC(=O)O)c4ccccc34)ccc2OCc2ccc(C)cc2)CC1 | 3.5 | 7.7 |  | 
CCc1ccc(COc2ccc(C(=O)c3cn(CCCC(=O)O)c4ccccc34)cc2OCCCN2CCN(c3ccccc3OC)CC2)cc1 | 4 | 6.6 |  | 
COc1ccccc1N1CCN(CCCOc2ccc(C(=O)c3cn(CCCC(=O)O)c4ccccc34)cc2OCc2ccccc2)CC1 | 360 | 7 |  | 
COc1ccccc1N1CCN(CCC(Oc2ccc(C(=O)Nc3ccccc3OCCCC(=O)O)cc2)c2ccccc2)CC1 (centres undefined) | 920 | 7.6 |  | 
COc1ccccc1N1CCN(CCOc2cc(C(=O)c3cn(CCCC(=O)O)c4ccccc34)ccc2OCc2ccc(C)cc2)CC1 | 4.8 | 6.8 |  | 
COc1ccccc1N1CCN(CCC(Oc2ccc(C(=O)Nc3ccccc3OCCCC(=O)O)cc2)c2ccc(C)cc2)CC1 (centres undefined) |  | 7.8 |  | 
COc1ccccc1N1CCN(CCCNc2cc(=O)n(C)c(=O)n2C)CC1 |  | 7.1 |  | 
Cc1ccc(COc2ccc(C(=O)c3cn(CCCC(=O)O)c4ccccc34)cc2OCCCN2CCN(c3ccccc3OC(C)C)CC2)cc1 | 2.9 | 6.8 |  | 
